Measurements reported in ChEMBL document CHEMBL3352370, “Substrate derived peptidic α-ketoamides as inhibitors of the malarial protease PfSUB1” (Bioorg Med Chem Lett, 2014).
Numbered stars: 1 amine (or outer) side, 2 acyl side, 3 side chain; on linkers, the order of the positions; unused ones are H or OH. Square brackets hold non-standard residues; d marks the D form. Peptide text beside a SMILES is read from it. ξ: configuration not given here. ξ3Amino2oxobutanoyl = CC(N[*:1])C(=O)C(=O)[*:2]; GABA = NCCCC(=O)O; βAla = NCCC(=O)O

The molecules below were run against T1, Subtilisin-like protease 1 (Plasmodium falciparum, UniProt O61142) (assay: Inhibition of Plasmodium falciparum SUB1).
T1 sequence (O61142 whole entry): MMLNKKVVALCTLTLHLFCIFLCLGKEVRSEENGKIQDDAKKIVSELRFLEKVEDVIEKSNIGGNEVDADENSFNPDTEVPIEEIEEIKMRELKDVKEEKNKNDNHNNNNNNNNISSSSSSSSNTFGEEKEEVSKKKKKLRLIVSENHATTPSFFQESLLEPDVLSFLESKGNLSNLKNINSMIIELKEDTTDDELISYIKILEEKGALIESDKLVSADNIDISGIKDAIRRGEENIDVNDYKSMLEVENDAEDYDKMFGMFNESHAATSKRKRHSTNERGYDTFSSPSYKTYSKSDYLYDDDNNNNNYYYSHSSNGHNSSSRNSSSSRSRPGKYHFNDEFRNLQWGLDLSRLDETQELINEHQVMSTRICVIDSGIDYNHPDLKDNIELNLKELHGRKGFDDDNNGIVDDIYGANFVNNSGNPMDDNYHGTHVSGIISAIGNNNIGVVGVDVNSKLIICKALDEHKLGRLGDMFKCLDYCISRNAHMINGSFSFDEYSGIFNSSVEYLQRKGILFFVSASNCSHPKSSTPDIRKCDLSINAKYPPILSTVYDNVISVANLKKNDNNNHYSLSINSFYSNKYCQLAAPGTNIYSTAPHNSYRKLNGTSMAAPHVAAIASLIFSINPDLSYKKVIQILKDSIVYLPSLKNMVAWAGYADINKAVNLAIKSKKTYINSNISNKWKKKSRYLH

Row | Compound | IC50 | Ki
1 | CC[C@H](C)[C@H](NC(C)=O)C(=O)N[C@H](C(=O)N[C@@H](C)C(=O)NC(C[C@@H]1CCNC1=O)C(=O)C(=O)NCCC(=O)O)[C@@H](C)O (stereo partly drawn) | > 50 µM | 
2 | CC[C@H](C)[C@H](NC(=O)[C@H](CCCCN)NC(C)=O)C(=O)N[C@H](C(=O)N[C@@H](C)C(=O)NC(C)C(=O)C(=O)NCCC(=O)O)[C@@H](C)O (stereo partly drawn) (Ac-KITA[ξ3Amino2oxobutanoyl][βAla]-OH) | 1 µM | 
3 | O=C(CCCCCNC(=O)CCCC[C@@H]1SC[C@@H]2NC(=O)N[C@@H]21)NCCCCCC(=O)Nc1ccc2c(Cl)c(OCCc3ccccc3)oc(=O)c2c1 | 18 µM | 
4 | CC[C@H](C)[C@H](NC(C)=O)C(=O)N[C@H](C(=O)N[C@@H](C)C(=O)NC(Cc1ccccc1)C(=O)C(=O)NCCC(=O)O)[C@@H](C)O (stereo partly drawn) | 100 µM | 
5 | CC[C@H](C)[C@H](NC(=O)[C@H](CCCCN)NC(C)=O)C(=O)N[C@H](C(=O)N[C@@H](C)C(=O)NC(C)C(=O)C(=O)NCC(=O)O)[C@@H](C)O (stereo partly drawn) (Ac-KITA[ξ3Amino2oxobutanoyl]G-OH) | 10 µM | 
6 | Oc1ccc(C2Oc3c(c(O)cc4c3C3c5c(O)cc(O)c(O)c5OC(c5ccc(O)c(O)c5)(O4)C3O)CC2O)cc1O (stereo not drawn) | 0.3 µM | 
7 | COc1ccc(Nc2cc(C)c3cc(NC(=O)c4cc5ccccc5[nH]4)ccc3n2)cc1 |  | 6 µM
8 | CC[C@H](C)[C@H](NC(=O)[C@H](CCCCN)NC(C)=O)C(=O)N[C@H](C(=O)N[C@@H](C)C(=O)NC(C)C(=O)C(=O)NCCC(N)=O)[C@@H](C)O (stereo partly drawn) (Ac-KITA[ξ3Amino2oxobutanoyl][βAla]-NH2) | 38 µM | 
9 | CCC(NC(=O)CNC(=O)[C@@H](NC(=O)[C@@H](NC(C)=O)[C@@H](C)CC)[C@@H](C)O)C(=O)C(=O)NCCC(=O)O (stereo partly drawn) | 1.2 µM | 
10 | CC[C@@H](C)[C@H](NC(=O)[C@H](CCCCN)NC(C)=O)C(=O)N[C@H](C(=O)N[C@@H](C)C(=O)NC(CCC(N)=O)C(=O)C(=O)NCCC(=O)O)[C@@H](C)O (stereo partly drawn) | 7 µM | 
11 | CC[C@H](C)[C@H](NC(=O)[C@H](CCCCN)NC(C)=O)C(=O)N[C@H](C(=O)N[C@@H](C)C(=O)NC(C)C(=O)C(=O)NCCCC(=O)O)[C@@H](C)O (stereo partly drawn) (Ac-KITA[ξ3Amino2oxobutanoyl][GABA]-OH) | 3.1 µM | 
12 | O=C(Nc1ccc(-c2nc3cc(NC(=O)c4ccccc4)ccc3[nH]2)cc1)c1ccccc1 |  | 8 µM

Now from value to molecule:

Row | IC50 | Ki | Compound
13 | > 50 µM |  | CC(=O)N[C@@H](C)C(=O)N[C@H](C(=O)NCC(=O)NC(C)C(=O)C(=O)NCCC(=O)O)[C@@H](C)O (stereo partly drawn)
14 | > 50 µM |  | CC[C@H](C)[C@H](NC(C)=O)C(=O)N[C@H](C(=O)NC1(C(=O)NC(C)C(=O)C(=O)NCCC(=O)O)CC1)[C@@H](C)O (stereo partly drawn)
15 | 30 µM |  | CC[C@H](C)[C@H](NC(C)=O)C(=O)N[C@@H](C)C(=O)N[C@@H](C)C(=O)NC(C)C(=O)C(=O)NCCC(=O)O (stereo partly drawn)
16 | 5 µM |  | CC[C@H](C)[C@H](NC(C)=O)C(=O)N[C@H](C(=O)N[C@@H](C)C(=O)NC(CCC(=O)O)C(=O)C(=O)NCCC(=O)O)[C@@H](C)O (stereo partly drawn)
17 | 4.5 µM |  | CC[C@H](C)[C@H](NC(C)=O)C(=O)N[C@H](C(=O)NCC(=O)NC(C(=O)C(=O)NCCC(=O)O)C(C)C)[C@@H](C)O (stereo partly drawn)
18 | > 50 µM |  | CC[C@H](C)[C@H](NC(C)=O)C(=O)N[C@H](C(=O)N[C@@H](C)C(=O)NC(CCC(=O)N(C)C)C(=O)C(=O)NCCC(=O)O)[C@@H](C)O (stereo partly drawn)
19 | 20 µM |  | CC[C@H](C)[C@H](NC(C)=O)C(=O)N[C@H](C(=O)N[C@@H](C)C(=O)NC(C(=O)C(=O)NCCC(=O)O)C(C)C)[C@@H](C)O (stereo partly drawn)
20 | 0.9 µM |  | CC[C@H](C)[C@H](NC(C)=O)C(=O)N[C@H](C(=O)NCC(=O)NC(C)C(=O)C(=O)NCCC(=O)O)[C@@H](C)O (stereo partly drawn)
21 | > 50 µM |  | CC[C@H](C)[C@H](NC(C)=O)C(=O)N[C@H](C(=O)NC(C)(C)C(=O)NC(C)C(=O)C(=O)NCCC(=O)O)[C@@H](C)O (stereo partly drawn)
22 | > 50 µM |  | CC[C@H](C)[C@H](NC(C)=O)C(=O)N[C@H](C(=O)N[C@@H](C)C(=O)NC(C(=O)C(=O)NCCC(=O)O)c1ccccc1)[C@@H](C)O (stereo partly drawn)
23 | 2.5 µM |  | CC[C@H](C)[C@H](NC(C)=O)C(=O)N[C@H](C(=O)N[C@@H](C)C(=O)NC(C)C(=O)C(=O)NCCC(=O)O)[C@@H](C)O (stereo partly drawn)
